Earlier results as cited in patent US20130084272A1, “COMPOSITIONS, KITS AND METHODS FOR NUTRITIONAL SUPPLEMENTATION WITH TWELVE CARBON CHAIN FATTY ACIDS AND TWELVE CARBON CHAIN ACYLGLYCEROLS” (priority 2011, published 2013).

System: exotoxins from Gram-positive bacteria
Details: Peterson et al. 2006; cited from earlier work

For CCCCCCCCCCCC(=O)OCC(O)CO (stereo not shown) [monolaurin, glycerol monolaurate], the “Effect on exotoxins from Gram-positive bacteria” value is given as “inhibit the effects of exotoxins”.
